# Laboratory results published in PMC10579241, “Impact of trifluoromethyl and sulfonyl groups on the biological activity of novel aryl-urea derivatives: synthesis, in-vitro, in-silico and SAR studies” (Scientific Reports, 2023).
# Like-named read-outs stand apart in the source and are kept apart here. Marks after values point to notes of the source that are not given here.
# Tests used:
# Escherichia coli [1] = assay: MIC by serial dilution (agar wells), E. coli; assay type: cell-based
# in vitro = assay type: cell-based; conditions: human, BJ1 normal skin fibroblast cells, 100 μg/mL
# [2] = system: normal skin fibroblast cell line (BJ1); assay: cells; assay type: cell-based; conditions: Homo sapiens, Skin fibroblast, MTT, 48 h
# [3] = system: osteosarcoma cell line (HOS); assay: cells; assay type: cell-based; conditions: Homo sapiens, 48 h
# colon cancer (HCT116) = assay: cells; assay type: cell-based; conditions: Homo sapiens
# Bacillus mycoides [4] = assay: microbe, parasite or virus in culture; assay type: cell-based
# HCT116 [5] = assay: DNA damage, comet assay, HCT116; assay type: cell-based, human
# Candida albicans [6] = assay: MIC by serial dilution (agar wells), C. albicans; assay type: cell-based
# Bacillus mycoides [7] = assay: microbe, parasite or virus in culture; assay type: cell-based; remark: listed apart in the source
# FASN = assay: qRT-PCR, FASN in HCT116 cells; assay type: cell-based, human; conditions: versus negative samples
# HCT116 [8] = assay: DNA fragmentation assay, HCT116; assay type: cell-based, human
# Candida albicans [9] = assay: Agar well diffusion, C. albicans; assay type: cell-based
# [10] = system: hepatocellular carcinoma cell line (HePG2); assay: cells; assay type: cell-based; conditions: Homo sapiens, 48 h
# skin cancer (A431) = assay: cells; assay type: cell-based; conditions: Homo sapiens, 48 h
# Escherichia coli [11] = assay: Agar well diffusion, E. coli; assay type: cell-based; conditions: Escherichia coli, read-out: Inhibition zones diameter
# TP53 = assay: qRT-PCR, TP53 in HCT116 cells; assay type: cell-based, human; conditions: versus negative samples
# Procedure: RNA was extracted from pancreas, prostate, lung and liver cell lines using a total RNA purification kit (Qiagen, Hilden, Germany) according to the manufacturer's instructions. An aliquot of RNA was diluted in RNase-free water to estimate RNA quantity. Aliquots were used immediately for reverse transcription (RT). cDNA synthesis was performed on extracted RNA, which was treated with DNase (Invitrogen, Germany) to remove any possible DNA contamination. The DNase-treated RNA was reverse transcribed into first-strand cDNA using the RevertAid First Strand cDNA Synthesis kit (Fermantas) according to the manufacturer's instructions. Determination of the pancreas, prostate, lung and liver cell line cDNA copy number was carried out using StepOne™ Real-Time PCR System from Applied Biosystems (Thermo Fisher Scientific, Waltham, MA USA). Gene expressions were detected by real-time PCR, which was performed using the Rotor-Gene Q system (Qiagen Company). A 25 µL reaction mixture consisted of 12.5 µL SYBR® Premix Ex TaqTM (TaKaRa, Biotech. Co. Ltd.), 0.5 µL of each primer (10 PMole) (Table 1), 1 µL cDNA (50 ng) and 10.5 µL RNase free water. The optimum amplification conditions were chosen empirically according to each tested gene. Generally, the amplification conditions include initial incubation (95.0 °C for 3 min), then 40 cycles of amplification with denaturation (95.0 °C for 15 s), annealing (55.0 °C for 30 s) and extension (72.0 °C for 30 s) steps then 71 cycles which started at 60.0 °C and then increased about 0.5 °C every 10 s up to 95.0 °C. Mean cycle threshold (Ct) values of triplicate samples are used for analysis. The Ct value indicates the fractional cycle number at which the amount of amplified target reaches a fixed threshold. Data from real-time PCR were analyzed using 2^−∆∆Ct method[38]–[40]. Data were represented as the fold change in target gene expression normalized to a House-Keeping gene (HKG) and relative to the control. β-actin was used as a HKG to normalize input RNA amount, RNA quality and reverse transcription efficiency.
# [12] = 0.00488 mg/mL, 150 µL in DMSO, 15 mm agar well
# [13] = 0.00975 mg/mL, 150 µL in DMSO, 15 mm agar well
# [14] = 0.0195 mg/mL, 150 µL in DMSO, 15 mm agar well
# [15] = 0.0391 mg/mL, 150 µL in DMSO, 15 mm agar well
# [16] = 0.0781 mg/mL, 150 µL in DMSO, 15 mm agar well
# [17] = 0.1563 mg/mL, 150 µL in DMSO, 15 mm agar well
# [18] = 0.3125 mg/mL, 150 µL in DMSO, 15 mm agar well
# [19] = 0.625 mg/mL, 150 µL in DMSO, 15 mm agar well
# [20] = 1.25 mg/mL, 150 µL in DMSO, 15 mm agar well
# [21] = 2.50 mg/mL, 150 µL in DMSO, 15 mm agar well
# [22] = 5.00 mg/mL, 150 µL in DMSO, 15 mm agar well
# [23] = 10.0 mg/mL, 150 µL in DMSO, 15 mm agar well
# [24] = read-out: Minimum inhibition concentration (MIC)
compound,measurement,setting,value
"Cc1ccc(S(=O)(=O)NC(=O)Nc2cc(C(F)(F)F)cc(C(F)(F)F)c2)cc1 [Compound 9, N-[(3,5-bis{Trifluoromethyl}phenyl)carbamoyl]-4-methylbenzenesulfonamide]",zone of inhibition at 4.88 µg/mL,Escherichia coli [1]; [12],0 mm
same,zone of inhibition at 9.75 µg/mL,Escherichia coli [1]; [13],0 mm
same,zone of inhibition at 19.5 µg/mL,Escherichia coli [1]; [14],0 mm
same,zone of inhibition at 39.1 µg/mL,Escherichia coli [1]; [15],0 mm
same,zone of inhibition at 78.1 µg/mL,Escherichia coli [1]; [16],16 mm
same,zone of inhibition at 156.3 µg/mL,Escherichia coli [1]; [17],20 mm
same,zone of inhibition at 312.5 µg/mL,Escherichia coli [1]; [18],25 mm
same,zone of inhibition at 625 µg/mL,Escherichia coli [1]; [19],30 mm
same,zone of inhibition at 1250 µg/mL,Escherichia coli [1]; [20],32 mm
same,zone of inhibition at 2500 µg/mL,Escherichia coli [1]; [21],33 mm
same,zone of inhibition at 5000 µg/mL,Escherichia coli [1]; [22],34 mm
same,zone of inhibition at 10000 µg/mL,Escherichia coli [1]; [23],35 mm
same,MIC,Escherichia coli [1]; [24],78.1 µg/mL
same,"mortality at 48 h, 100 µg/mL",in vitro,28 ± 0.61%
same,IC50,[2],52.5 ± 0.74 µM
same,mortality at 100 µg/mL,[3]; 100 μg/mL,100%
same,IC50,[3]; MTT,17.6 ± 0.24 µM
same,mortality at 100 µg/mL,"colon cancer (HCT116); HCT-116, 48 h, 100 μg/mL",100%
same,IC50,"colon cancer (HCT116); HCT-116, MTT, 48 h",17.8 ± 0.35 µM
same,zone of inhibition at 4.88 µg/mL,Bacillus mycoides [4]; read-out: Inhibition zone,0 mm
same,zone of inhibition at 9.75 µg/mL,Bacillus mycoides [4]; read-out: Inhibition zone,0 mm
same,zone of inhibition at 19.5 µg/mL,Bacillus mycoides [4]; read-out: Inhibition zone,16 mm
same,zone of inhibition at 39.1 µg/mL,Bacillus mycoides [4]; read-out: Inhibition zone,17 mm
same,zone of inhibition at 78.1 µg/mL,Bacillus mycoides [4]; read-out: Inhibition zone,21 mm
same,zone of inhibition at 156.3 µg/mL,Bacillus mycoides [4]; read-out: Inhibition zone,25 mm
same,zone of inhibition at 312.5 µg/mL,Bacillus mycoides [4]; read-out: Inhibition zone,28 mm
same,zone of inhibition at 625 µg/mL,Bacillus mycoides [4]; read-out: Inhibition zone,29 mm
same,zone of inhibition at 1250 µg/mL,Bacillus mycoides [4]; read-out: Inhibition zone,30 mm
same,zone of inhibition at 2500 µg/mL,Bacillus mycoides [4]; read-out: Inhibition zone,32 mm
same,zone of inhibition at 5000 µg/mL,Bacillus mycoides [4]; read-out: Inhibition zone,33 mm
same,zone of inhibition at 10000 µg/mL,Bacillus mycoides [4]; read-out: Inhibition zone,33 mm
same,MIC,Bacillus mycoides [4]; [24],19.5 µg/mL
same,DNA damaged cells % (mean ± SEM),HCT116 [5],19.75 ± 1.25^b %
same,"Class 0 (no tail), number of cells",HCT116 [5]; of 400 cells analyzed,321
same,"Class 1 (tail length < diameter of nucleus), number of cells",HCT116 [5]; of 400 cells analyzed,37
same,"Class 2 (tail length between 1 and 2 × the diameter of nucleus), number of cells",HCT116 [5]; of 400 cells analyzed,24
same,"Class 3 (tail length > 2 × the diameter of nucleus), number of cells",HCT116 [5]; of 400 cells analyzed,18
same,"No. of cells, Comets",HCT116 [5]; of 400 cells analyzed,79
same,zone of inhibition at 4.88 µg/mL,Candida albicans [6]; [12],0 mm
same,zone of inhibition at 9.75 µg/mL,Candida albicans [6]; [13],0 mm
same,zone of inhibition at 19.5 µg/mL,Candida albicans [6]; [14],0 mm
same,zone of inhibition at 39.1 µg/mL,Candida albicans [6]; [15],16 mm
same,zone of inhibition at 78.1 µg/mL,Candida albicans [6]; [16],20 mm
same,zone of inhibition at 156.3 µg/mL,Candida albicans [6]; [17],23 mm
same,zone of inhibition at 312.5 µg/mL,Candida albicans [6]; [18],25 mm
same,zone of inhibition at 625 µg/mL,Candida albicans [6]; [19],28 mm
same,zone of inhibition at 1250 µg/mL,Candida albicans [6]; [20],32 mm
same,zone of inhibition at 2500 µg/mL,Candida albicans [6]; [21],34 mm
same,zone of inhibition at 5000 µg/mL,Candida albicans [6]; [22],35 mm
same,zone of inhibition at 10000 µg/mL,Candida albicans [6]; [23],36 mm
same,MIC,Candida albicans [6]; [24],39.1 µg/mL
same,Inhibition zones diameter,"Bacillus mycoides [7]; B. mycoides, 200 μL of 10 mg/mL in DMSO in 15 mm holes, overnight 37 °C",41 ± 0.0 mm
same,zone of inhibition at 10000 µg/mL,"Bacillus mycoides [7]; Bacillus mycoides, read-out: Inhibition zones diameter",41 mm
same,FASN gene expression level,FASN,suppression
same,Change (DNA fragmentation versus untreated cells),HCT116 [8],18.10
same,DNA fragmentation % M ± SEM,"HCT116 [8]; IC50 concentration, 24 h",29.0 ± 0.54^a %
same,Inhibition,HCT116 [8]; doxorubicin = 0.00,-13.81
same,Inhibition zones diameter,"Candida albicans [9]; C. albicans, 200 μL of 10 mg/mL in DMSO in 15 mm holes, overnight 37 °C",41 ± 0.21 mm
same,zone of inhibition at 10000 µg/mL,"Candida albicans [9]; Candida albicans, read-out: Inhibition zones diameter",41 mm
same,mortality at 100 µg/mL,[10]; 100 μg/mL,100%
same,IC50,[10]; MTT,12.4 ± 0.17 µM
same,mortality at 100 µg/mL,"skin cancer (A431); A-431, 100 μg/mL",100%
same,IC50,"skin cancer (A431); A-431, MTT",113.3 ± 0.68 µM
same,zone of inhibition at 10000 µg/mL,Escherichia coli [11],37 ± 0.74 mm
same,TP53 gene expression level,TP53,suppression
